Results taken from patent publication EP0317053B1, “Trigramin- a platelet aggregation inhibiting polypeptide” (Temple University of the Commonwealth System of Higher …, priority 1987, dated 1989).
Where no end group is shown, it is not given here.

What was measured:
[1] = Hamster mesentery bleeding time during continuous intravenous infusion; format: in vivo, golden Syrian hamsters; conditions: 2 ng/kg/min; one hamster; positive control
Procedure: Female golden Syrian hamsters (90-150 g) were maintained on food and water ad libitum, but fasted overnight prior to their use in the present experiment. After the administration of anesthesia (65 mg/kg sodium pentobarbital, i.p.), the animals were shaved in preparation for surgery. The trachea was intubated with PE-100 polyethylene tubing to facilitate spontaneous breathing. Cannulation of the right femoral vein was performed to provide an intravenous route for supplemental anesthesia as well as for the administration of various control and experiment agents. A catheter was introduced into the right carotid artery for the continuous monitoring of arterial blood pressure, and a rectal temperature probe was inserted. […]
The shaved abdomen was opened by a mid-line incision and a portion of the small intestine was exteriorized and draped over a lucite pedestal. […] Bleeding was observed through Zeiss dissecting microscope (20 X) and bleeding time was recorded from the time of the cut until the cessation of bleeding by the formation of a hemostatic plug. Each animal was used as its own control with bleeding time determined both during the infusion of saline and the selected experimental agent. […] Four additional animals were infused with trigramin while arterial blood pressure was continuously monitored to determine if it had any direct effect on systemic blood pressure. […]

GPIIb-GPIIIa complex = assay: Binding of 125I-trigramin to human platelets; conditions: both ligands

| Compound | time after the completion of the infusion until bleeding ceased [1] | inhibition of the binding of ¹²⁵I-trigramin and of ¹²⁵I-fibrinogen to human platelets (GPIIb-GPIIIa complex) |
| --- | --- | --- |
| CC#CCC(C)[C@H](O)/C=C/[C@@H]1[C@H]2C/C(=C/CCCC(=O)O)C[C@H]2C[C@H]1O (some centres unmarked) [Iloplrost] | approximately 9 minutes | – |
| GQQHHLGGAKQAGDV | – | inhibited |
